# Data taken from paper PMC5823845 (Bioorganic & Medicinal Chemistry, 2018).
# Columns and labels:
# [1] = in the absence of S9; cited from earlier work
# [2] = Intrinsic clearance in liver microsomes; assay type: in vitro ADME; settings: liver microsomes, 37 °C, NADPH, 45 min, mean of 5
# Description: The reaction is terminated by the addition of methanol. Following centrifugation, the supernatant is analyzed on the LC-MS/MS. […] The data is the mean on 5 separate experiments.
# The ln peak area ratio (compound peak area/internal standard peak area) is plotted against time and the gradient of the line determined.
# (see Supplementary data file for details).
# [3] = Log D pH 7.4, octanol/buffer shake flask method
# Description: Briefly, octanol (pre-saturated with buffer) is added to the test compound and sonicated. Buffer at pH 7.4 (presaturated with octanol) is then added to the octanol. […] The system is mixed to allow distribution of the compound between the two phases.
# Log D = Log (Coct / Caq ). Where: Coct = Concentration in octanol sample (corrected for dilution) and Caq = Concentration in aqueous sample (corrected for dilution)
# HEPG2 cells = assay: High-content cell toxicity screen in HEPG2 cells; assay type: cell-based; settings: concentrations between 10 and 30 μM
# Description: Effect on the cell or mitochondrial viability markers in HepG2 cells were tested for compounds up to 50 μM. HepG2 cells were plated on 96-well tissue culture treated black walled clear bottomed polystyrene plates at 0:3 _ 104 cells in 100_L per well. After 24 hr the cells were dosed with the test compound at a range of concentrations (see Assay Summary for details). At the end of the incubation period, the cells were loaded with the relevant dye/antibody for each cell health marker. The plates were then scanned using an automated fluorescent cellular imager, ArrayScanr VTI (Thermo Scientific Cellomics).
# Cyp 450 2C9 = biological target: T1, Cyp 450 2C9 (Homo sapiens, UniProt P11712); assay: Cytochrome P450 inhibition in human liver microsomes; assay type: in vitro ADME; settings: at 25 μM
# T1 construct: tissue Cyprotex (CRO); host or cells: human liver microsomes
# Description: (§1) The five main cytochrome P450 isoforms (CYP1A, CYP2C9, CYP2C19, CYP2D6 and CYP3A4) were investigated in the P450 inhibition assay. […] At the end of the incubation, the formation of the metabolite was monitored by LC-MS/MS (or fluorescence in the case of CYP1A) at each of the test compound concentrations.
# Cyp 450 2C19 = biological target: T2, Cyp 450 2C19 (Homo sapiens, UniProt P33261); assay: as above; assay type: in vitro ADME; settings: at 25 μM
# T2 construct: tissue Cyprotex (CRO); host or cells: human liver microsomes
# Description: as §1
# Cyp 450 2D6 = biological target: T3, Cyp 450 2D6 (Homo sapiens, UniProt P10635); assay: as above; assay type: in vitro ADME; settings: at 25 μM
# T3 construct: tissue Cyprotex (CRO); host or cells: human liver microsomes
# Description: as §1
# Cyp 450 3A4 = biological target: T4, Cyp 450 3A4 (Homo sapiens, UniProt P08684); assay: as above; assay type: in vitro ADME; settings: at 25 μM
# T4 construct: tissue Cyprotex (CRO); host or cells: human liver microsomes
# Description: as §1
# Cyp 450 1A2 = biological target: T5, Cyp 450 1A2 (Homo sapiens, UniProt P05177); assay: as above; assay type: in vitro ADME; settings: at 25 μM
# T5 construct: tissue Cyprotex (CRO); host or cells: human liver microsomes
# T5 sequence (P05177 1-516): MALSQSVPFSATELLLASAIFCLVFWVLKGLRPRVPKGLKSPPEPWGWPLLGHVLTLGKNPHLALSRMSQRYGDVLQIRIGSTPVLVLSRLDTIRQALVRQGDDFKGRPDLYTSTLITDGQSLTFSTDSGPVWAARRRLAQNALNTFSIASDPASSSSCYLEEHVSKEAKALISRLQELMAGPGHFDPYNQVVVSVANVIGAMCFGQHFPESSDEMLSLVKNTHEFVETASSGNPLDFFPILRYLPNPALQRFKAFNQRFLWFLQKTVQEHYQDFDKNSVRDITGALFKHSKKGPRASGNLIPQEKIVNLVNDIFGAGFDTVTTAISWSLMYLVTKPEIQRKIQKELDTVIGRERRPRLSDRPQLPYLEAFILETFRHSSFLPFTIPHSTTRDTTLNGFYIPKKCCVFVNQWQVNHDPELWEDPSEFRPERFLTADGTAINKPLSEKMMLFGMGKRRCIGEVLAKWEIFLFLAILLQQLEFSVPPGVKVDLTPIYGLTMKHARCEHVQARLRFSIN
# Description: as §1
# PK studies in rats = assay type: in vivo, Sprague-Dawley rats; settings: for rat pK AUC po: 10 mg/kg po, 8% Ethanol/92% PEG-400, n = 4; for rat pK Cl: iv 0.5 mg/kg; for rat pK Cl / bioavailability: n = 4; for bioavailability: male, Sprague-Dawley, whole blood, rat, 10 mg/kg po vs 0.5 mg/kg iv, read-out: rat pK F%
# Description: The Test Items were orally administered at a dose of 10 mg/kg and a dosing volume of 10 mL/kg. […] The Test Items were intravenously administered at a dose of 0.5 mg/kg and a dosing volume of 2 mL/kg. […] Whole blood concentrations of the Test Items were measured using LC-MS/MS and selected pharmacokinetic parameters calculated using Pharsight WinNonLin software. For furthers details see Supplementary data file.
# mouse RAR alpha receptor = biological target: T6, mouse RAR alpha receptor (Mus musculus, UniProt P11416); settings: relative to the amplitude of the normalizing ATRA output
# T6 sequence (P11416 183-417 limits assumed): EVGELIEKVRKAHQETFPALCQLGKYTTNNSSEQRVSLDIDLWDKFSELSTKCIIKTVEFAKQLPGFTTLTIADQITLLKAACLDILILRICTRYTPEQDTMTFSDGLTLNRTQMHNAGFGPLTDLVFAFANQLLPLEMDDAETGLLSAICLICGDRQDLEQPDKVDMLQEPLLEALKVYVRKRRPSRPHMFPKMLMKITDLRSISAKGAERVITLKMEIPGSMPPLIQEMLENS
# T4 sequence (P08684 whole entry): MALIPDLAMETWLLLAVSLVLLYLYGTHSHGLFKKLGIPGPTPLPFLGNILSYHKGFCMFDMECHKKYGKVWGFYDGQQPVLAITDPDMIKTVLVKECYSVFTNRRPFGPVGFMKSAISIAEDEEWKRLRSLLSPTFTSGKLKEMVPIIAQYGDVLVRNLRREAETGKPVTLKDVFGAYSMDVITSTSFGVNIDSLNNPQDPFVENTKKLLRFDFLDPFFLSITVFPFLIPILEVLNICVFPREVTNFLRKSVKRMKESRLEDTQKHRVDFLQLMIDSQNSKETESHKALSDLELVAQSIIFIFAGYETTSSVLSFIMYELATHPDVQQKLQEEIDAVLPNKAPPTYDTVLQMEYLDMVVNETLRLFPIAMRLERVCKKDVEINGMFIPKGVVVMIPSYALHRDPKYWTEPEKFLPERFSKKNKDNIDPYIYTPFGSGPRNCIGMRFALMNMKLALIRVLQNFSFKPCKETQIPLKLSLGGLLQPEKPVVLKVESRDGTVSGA
# T2 sequence (P33261 whole entry): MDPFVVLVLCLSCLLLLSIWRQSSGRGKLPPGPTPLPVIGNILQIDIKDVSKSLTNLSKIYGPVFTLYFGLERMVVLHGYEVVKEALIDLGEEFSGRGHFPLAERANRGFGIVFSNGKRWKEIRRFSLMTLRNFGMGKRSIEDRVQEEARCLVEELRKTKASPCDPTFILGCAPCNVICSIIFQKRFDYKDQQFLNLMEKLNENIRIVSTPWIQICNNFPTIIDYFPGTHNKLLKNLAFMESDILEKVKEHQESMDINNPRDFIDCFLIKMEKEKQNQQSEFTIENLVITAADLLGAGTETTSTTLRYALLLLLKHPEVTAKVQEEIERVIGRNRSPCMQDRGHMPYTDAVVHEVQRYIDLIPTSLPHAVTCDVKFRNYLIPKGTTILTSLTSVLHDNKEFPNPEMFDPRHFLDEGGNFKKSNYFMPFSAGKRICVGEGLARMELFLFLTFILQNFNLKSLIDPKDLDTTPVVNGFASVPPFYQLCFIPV
# T1 sequence (P11712 whole entry): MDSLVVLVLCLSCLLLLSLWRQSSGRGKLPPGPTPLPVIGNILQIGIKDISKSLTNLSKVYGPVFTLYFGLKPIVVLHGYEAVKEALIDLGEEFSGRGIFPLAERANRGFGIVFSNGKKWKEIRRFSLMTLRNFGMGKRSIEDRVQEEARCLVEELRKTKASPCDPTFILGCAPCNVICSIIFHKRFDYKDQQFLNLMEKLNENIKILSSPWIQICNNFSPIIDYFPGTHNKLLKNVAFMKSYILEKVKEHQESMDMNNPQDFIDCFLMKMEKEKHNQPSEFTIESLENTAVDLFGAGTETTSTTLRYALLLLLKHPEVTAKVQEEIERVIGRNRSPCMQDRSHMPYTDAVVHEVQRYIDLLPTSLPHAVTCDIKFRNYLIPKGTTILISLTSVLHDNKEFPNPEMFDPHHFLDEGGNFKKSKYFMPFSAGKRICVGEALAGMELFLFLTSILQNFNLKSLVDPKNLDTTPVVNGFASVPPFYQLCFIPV
# T3 sequence (P10635 whole entry): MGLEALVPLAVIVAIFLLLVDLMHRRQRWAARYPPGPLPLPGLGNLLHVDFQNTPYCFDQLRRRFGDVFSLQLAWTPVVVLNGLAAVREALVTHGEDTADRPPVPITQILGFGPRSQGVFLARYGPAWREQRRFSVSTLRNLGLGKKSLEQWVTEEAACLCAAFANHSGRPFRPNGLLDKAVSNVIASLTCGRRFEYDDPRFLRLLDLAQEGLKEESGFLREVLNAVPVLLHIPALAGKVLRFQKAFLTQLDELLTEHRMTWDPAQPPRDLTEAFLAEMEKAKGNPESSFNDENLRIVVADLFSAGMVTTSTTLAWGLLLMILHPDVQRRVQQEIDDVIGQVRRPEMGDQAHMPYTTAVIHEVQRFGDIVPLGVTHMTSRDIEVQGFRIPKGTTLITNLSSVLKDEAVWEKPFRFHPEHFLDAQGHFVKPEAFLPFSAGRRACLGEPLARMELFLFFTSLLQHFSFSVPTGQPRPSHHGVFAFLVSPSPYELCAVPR
Structure (SMILES),mutagenicity in vitro [1],microsomal CLint ([2]; human microsomes) [µL/min/mg],logD [3],cell membrane permeability (HEPG2 cells),mitochondrial membrane potential (HEPG2 cells),Cyp 2C9 liability (Cyp 450 2C9),Cyp 2C19 liability (Cyp 450 2C19),Cyp 2D6 liability (Cyp 450 2D6),Cyp 3A4 liability (Cyp 450 3A4),Cyp1A liability (Cyp 450 1A2),microsomal CLint ([2]; mouse microsomes) [µL/min/mg],rat pK AUC po (PK studies in rats),rat pK Cl (PK studies in rats) [mL/kg/min],bioavailability (PK studies in rats) [%],RARα agonist type (partial / full agonist) (mouse RAR alpha receptor)
CC1(C)CCC(C)(C)c2cc(C(=O)Nc3ccc(C(=O)O)cc3)ccc21 [Compound 2],mutagen,15.6,2.8,significant increase,significant decrease,,,,,,,,,,
"CCOc1c(Cl)cc(C(=O)Nc2ccc(C(=O)O)cc2)cc1Cl [Compound 5, 4-(3,5-dichloro-4-ethoxybenzamido)benzoic acid]",,18,1.7,,,inactive,inactive,inactive,inactive,inactive,127,,,,
"CC(C)Oc1cc(C(=O)Nc2ccc(C(=O)O)cc2)cc(Cl)c1OC(C)C [Compound 39, 4-(3-chloro-4,5-diisopropoxybenzamido)benzoic acid]",,,2.6,,,,,,,,31,"43,569 ng·min mL^−1",10,39,full agonist
COc1c(Cl)cc(C(=O)Nc2ccc(C(=O)O)cc2)cc1OC(C)C [Compound 51],,12,1,,,,,,,,9,"50,940 ng·min mL^−1",3,13,full agonist
